From ChEMBL document CHEMBL1697731, “Cheminformatics analysis of assertions mined from literature that describe drug-induced liver injury in different species” (Chem Res Toxicol, 2010)

Legend:
Hepatotoxicity [1] = experiment: Literature-mined compound from Fourches et al multi-species drug-induced liver injury (DILI) dataset, effect in humans; conditions: human
Hepatotoxicity [2] = experiment: Literature-mined compound from Fourches et al multi-species drug-induced liver injury (DILI) dataset, effect in rodents; conditions: rodentia
Hepatotoxicity [3] = experiment: Literature-mined compound from Fourches et al multi-species drug-induced liver injury (DILI) dataset, effect in non-rodents

SMILES	Hepatotoxicity (Hepatotoxicity [1])	Hepatotoxicity (Hepatotoxicity [2])	Hepatotoxicity (Hepatotoxicity [3])	Hepatotoxicity (Hepatotoxicity [1]; Liver)	Hepatotoxicity (Hepatotoxicity [2]; Liver)	Hepatotoxicity (Hepatotoxicity [3]; Liver)
Cc1ccccc1C(OCCN(C)C)c1ccccc1 (stereo unspecified) [ORPHENADRINE]	no drug-induced liver injury reported	drug-induced liver injury reported	no drug-induced liver injury reported			
CC(C)NCC1CCc2cc(CO)c([N+](=O)[O-])cc2N1 (stereo unspecified) [OXAMNIQUINE]	no drug-induced liver injury reported	drug-induced liver injury reported	no drug-induced liver injury reported			
C[C@]12COC(=O)C[C@@H]1CC[C@@H]1[C@@H]2CC[C@@]2(C)[C@H]1CC[C@]2(C)O [OXANDROLONE]	no drug-induced liver injury reported	drug-induced liver injury reported	no drug-induced liver injury reported			
O=C(O)CCc1nc(-c2ccccc2)c(-c2ccccc2)o1 [OXAPROZIN]	drug-induced liver injury reported	no drug-induced liver injury reported	no drug-induced liver injury reported			
NC(=O)N1c2ccccc2CC(=O)c2ccccc21 [OXCARBAZEPINE]	drug-induced liver injury reported	no drug-induced liver injury reported	no drug-induced liver injury reported			
CNCC(O)c1ccc(O)cc1 (stereo unspecified) [OXEDRINE]	no drug-induced liver injury reported	drug-induced liver injury reported	no drug-induced liver injury reported			
CN(C(=O)CN(CCO)CC(=O)N(C)C(C)(C)Cc1ccccc1)C(C)(C)Cc1ccccc1 [OXETHAZAINE]	no drug-induced liver injury reported	drug-induced liver injury reported	no drug-induced liver injury reported			
C=CCOc1ccccc1OCC(O)CNC(C)C (stereo unspecified) [OXPRENOLOL]				no drug-induced liver injury reported	no drug-induced liver injury reported	drug-induced liver injury reported
COc1ccc(C(=O)c2ccccc2)c(O)c1 [OXYBENZONE]	no drug-induced liver injury reported	drug-induced liver injury reported	no drug-induced liver injury reported			
COc1ccc2c3c1O[C@H]1C(=O)CC[C@@]4(O)[C@@H](C2)N(C)CC[C@]314.Cl [OXYCODONE HYDROCHLORIDE]				no drug-induced liver injury reported	drug-induced liver injury reported	no drug-induced liver injury reported
C[C@]12C/C(=C/O)C(=O)C[C@@H]1CC[C@@H]1[C@@H]2CC[C@@]2(C)[C@H]1CC[C@]2(C)O [OXYMETHOLONE]	drug-induced liver injury reported	no drug-induced liver injury reported	no drug-induced liver injury reported			
CN1CC[C@]23c4c5ccc(O)c4O[C@H]2C(=O)CC[C@@]3(O)[C@H]1C5 [OXYMORPHONE]	drug-induced liver injury reported	no drug-induced liver injury reported	no drug-induced liver injury reported			
CCCCC1C(=O)N(c2ccccc2)N(c2ccc(O)cc2)C1=O (stereo unspecified) [OXYPHENBUTAZONE ANHYDROUS]	no drug-induced liver injury reported	drug-induced liver injury reported	no drug-induced liver injury reported			
O=C1Nc2ccccc2C1(c1ccc(O)cc1)c1ccc(O)cc1 [OXYPHENISATINE]	drug-induced liver injury reported	no drug-induced liver injury reported	no drug-induced liver injury reported			
O=c1[nH]c(=O)c2c[nH]nc2[nH]1 [OXYPURINOL]	no drug-induced liver injury reported	drug-induced liver injury reported	no drug-induced liver injury reported			
CN(C)[C@@H]1C(O)=C(C(N)=O)C(=O)[C@@]2(O)C(O)=C3C(=O)c4c(O)cccc4[C@@](C)(O)[C@H]3[C@H](O)[C@@H]12 [OXYTETRACYCLINE]	no drug-induced liver injury reported	drug-induced liver injury reported	no drug-induced liver injury reported			
O=C(O)/C=C/c1ccc(Cn2ccnc2)cc1 [OZAGREL]	no drug-induced liver injury reported	drug-induced liver injury reported	no drug-induced liver injury reported			
CC(=O)O[C@H]1C(=O)[C@@]2(C)[C@H]([C@H](OC(=O)c3ccccc3)[C@]3(O)C[C@H](OC(=O)[C@H](O)[C@@H](NC(=O)c4ccccc4)c4ccccc4)C(C)=C1C3(C)C)[C@]1(OC(C)=O)CO[C@@H]1C[C@@H]2O [PACLITAXEL]				drug-induced liver injury reported	drug-induced liver injury reported	no drug-induced liver injury reported
COc1ccnc(C[S+]([O-])c2nc3ccc(OC(F)F)cc3[nH]2)c1OC (stereo unspecified) [PANTOPRAZOLE]	drug-induced liver injury reported	no drug-induced liver injury reported	no drug-induced liver injury reported			

SMILES	Hepatotoxicity (Hepatotoxicity [1])	Hepatotoxicity (Hepatotoxicity [2])	Hepatotoxicity (Hepatotoxicity [3])	Hepatotoxicity (Hepatotoxicity [1]; Liver)	Hepatotoxicity (Hepatotoxicity [2]; Liver)	Hepatotoxicity (Hepatotoxicity [3]; Liver)
NC[C@@H]1O[C@H](O[C@H]2[C@@H](O)[C@H](O[C@@H]3[C@@H](O)[C@H](N)C[C@H](N)[C@H]3O[C@H]3O[C@H](CO)[C@@H](O)[C@H](O)[C@H]3N)O[C@@H]2CO)[C@H](N)[C@@H](O)[C@@H]1O [PAROMOMYCIN]	no drug-induced liver injury reported	drug-induced liver injury reported	no drug-induced liver injury reported			
Fc1ccc([C@@H]2CCNC[C@H]2COc2ccc3c(c2)OCO3)cc1 [PAROXETINE]	drug-induced liver injury reported	no drug-induced liver injury reported	no drug-induced liver injury reported			
NC1=NC(=O)C(c2ccccc2)O1 (stereo unspecified) [PEMOLINE]	drug-induced liver injury reported	no drug-induced liver injury reported	no drug-induced liver injury reported			
Nc1nc2c(ncn2CCC(CO)CO)c(=O)[nH]1 [PENCICLOVIR]	drug-induced liver injury reported	no drug-induced liver injury reported	no drug-induced liver injury reported			
CC(C)(S)[C@@H](N)C(=O)O [PENICILLAMINE]	drug-induced liver injury reported	drug-induced liver injury reported	drug-induced liver injury reported			
CC1(C)S[C@@H]2[C@H](NC(=O)Cc3ccccc3)C(=O)N2[C@H]1C(=O)O [PENICILLIN G]	drug-induced liver injury reported	drug-induced liver injury reported	drug-induced liver injury reported			
CSCC[C@H](NC(=O)[C@H](Cc1c[nH]c2ccccc12)NC(=O)CCNC(=O)OC(C)(C)C)C(=O)N[C@@H](CC(=O)O)C(=O)N[C@@H](Cc1ccccc1)C(N)=O [PENTAGASTRIN]	drug-induced liver injury reported	drug-induced liver injury reported	no drug-induced liver injury reported			
CCCC(C)C1(CC)C(=O)NC(=O)NC1=O (stereo unspecified) [PENTOBARBITAL]	drug-induced liver injury reported	drug-induced liver injury reported	drug-induced liver injury reported			
CC(=O)CCCCn1c(=O)c2c(ncn2C)n(C)c1=O [PENTOXIFYLLINE]	drug-induced liver injury reported	drug-induced liver injury reported	drug-induced liver injury reported			
CN1CCN(CCCN2c3ccccc3Sc3ccccc32)CC1 [PERAZINE]	drug-induced liver injury reported	no drug-induced liver injury reported	no drug-induced liver injury reported			
Clc1c(Cl)c(Cl)c(Cl)c(Cl)c1Cl [PERCHLOROBENZENE]	drug-induced liver injury reported	drug-induced liver injury reported	no drug-induced liver injury reported			
FC(F)(F)C(F)(F)C(F)(F)C(F)(F)C(F)(F)C(F)(F)C(F)(F)C(F)(F)Br [PERFLUBRON]	drug-induced liver injury reported	no drug-induced liver injury reported	drug-induced liver injury reported			
CCC[C@H](N[C@@H](C)C(=O)N1[C@H](C(=O)O)C[C@@H]2CCCC[C@@H]21)C(=O)OCC [PERINDOPRIL]	drug-induced liver injury reported	drug-induced liver injury reported	no drug-induced liver injury reported			
CC1(C)C(C=C(Cl)Cl)C1C(=O)OCc1cccc(Oc2ccccc2)c1 (stereo unspecified) [PERMETHRIN]	no drug-induced liver injury reported	drug-induced liver injury reported	no drug-induced liver injury reported			
OCCN1CCN(CCCN2c3ccccc3Sc3ccc(Cl)cc32)CC1 [PERPHENAZINE]	no drug-induced liver injury reported	drug-induced liver injury reported	no drug-induced liver injury reported			
CCOc1ccc(NC(C)=O)cc1 [PHENACETIN]	drug-induced liver injury reported	drug-induced liver injury reported	no drug-induced liver injury reported			
NNCCc1ccccc1 [PHENELZINE]				drug-induced liver injury reported	drug-induced liver injury reported	no drug-induced liver injury reported
[H]/N=C(/N)N/C(=N/[H])NCCc1ccccc1 [PHENFORMIN]	no drug-induced liver injury reported	drug-induced liver injury reported	no drug-induced liver injury reported			
